Read-outs that look alike come from different tables or passages of the source.
Experiments:
[1] = nonclinical pharmacokinetics after a single oral dose; assay type: in vivo, mice, rats, and monkeys
Experimental: (§1) Exposure to NRL-2017 was similar or greater (up to 5-fold) than that to NRL-1049 in rats when dosed once a day (QD). In monkeys, exposure to NRL-2017 was also greater (up to 33-fold) than that to NRL-1049. When rats were dosed twice a day (BID) for 14 days, there was a decrease in formation of NRL-2017 with exposure to NRL-2017 lower than that of NRL-1049 (ratio as low as 0.06). […] NRL-1049 bound to human serum albumin and human alpha1-acid glycoprotein. […] There was also inhibition of P-glycoprotein (P-gp) (only CACO-2 cells), organic anion transporting polypeptides (OATP) OATP1B1, OATP1B3 and OAT3 (IC50, >100 μM), but no effect on P-gp (MDCK2 cells), breast cancer resistance protein (BCRP), bile salt export pump (BSEP), or MATE2-K. NRL-1049 is a substrate for P-gp, not BCRP. […] This conclusion will be revisited when human pharmacokinetic (PK) data becomes available.

dog hepatocytes = experiment: incubation with dog hepatocytes; assay type: in vitro ADME
Experimental: as §1

[2] = tissue distribution and excretion; assay type: in vivo
Experimental: as §1

plasma protein binding = assay type: in vitro ADME, mouse; details: range over mouse, rat, dog, monkey, minipig and human plasma; read-out: % free drug
Experimental: as §1

plasma protein = plasma protein binding; assay type: in vitro ADME, mouse; details: mouse, rat, dog, monkey, minipig and human plasma
Experimental: as §1

human serum albumin = human serum albumin (Homo sapiens, UniProt P02768); experiment: binding to human serum albumin; assay type: in vitro ADME
Experimental: as §1

CYP2D6 [3] = molecular target: T1, CYP2D6 (Homo sapiens, UniProt P10635); experiment: CYP isozyme mediating metabolism; assay type: in vitro ADME
Experimental: as §1

CYP2C8 = CYP2C8 (Homo sapiens, UniProt P10632); experiment: CYP inhibition; assay type: in vitro ADME; details: read-out: half-maximal inhibitory concentration (IC50)
Experimental: as §1

CYP2D6 [4] = molecular target: T1, CYP2D6; experiment: CYP inhibition; assay type: in vitro ADME; details: read-out: half-maximal inhibitory concentration (IC50)
Experimental: as §1

CYP3A4/5 = experiment: CYP inhibition; assay type: in vitro ADME; details: human
Experimental: as §1

CYP2B2 = experiment: CYP expression in hepatocyte culture; assay type: in vitro ADME; details: at concentrations as low as 3.2 μM
Experimental: as §1

[5] = first-in-human single ascending dose and food-effect study, safety and tolerability; assay type: in vivo
Source text: This was a first-in-human, single center, randomized, double-blind, placebo-controlled, single ascending dose (SAD) study, including a food-effect assessment, in healthy male and female subjects. Up to 44 subjects were included in the study.
The study consisted of 4 sequential cohorts of 8 subjects each (6 active and 2 placebo), randomly assigned to receive a single oral dose of NRL-1049 or matching-placebo under fasting state on Day 1 (See Table 2). In each cohort, a sentinel group of 2 subjects (1 active and 1 placebo) were dosed at least 24 hours prior to enrolling the remaining subjects of the cohort, contingent on the safety profile observed during sentinel dosing, as defined by medical judgment.
Subjects were admitted to the clinical research unit (CRU) on Day −1. On Day 1, following an overnight fast, subjects received a single oral dose of their assigned study treatment. Safety, PK, and exploratory biomarker assessments were performed prior to dosing and at assigned time points during study confinement. Subjects were permitted to leave the CRU following the completion of the 48-hour PK postdose sampling and safety assessments. A safety follow-up phone call was performed on Day 8 (±1 day).
Each dose cohort was separated by at least 7 days to review safety by the Data Safety Monitoring Board (DSMB) prior to a decision to proceed with the next higher dose cohort or stop the study.
Furthermore, a food-effect assessment was integrated into Cohort 3, in which a single oral 150 mg dose of NRL-1049 or placebo was administered to 12 subjects (10 active and 2 placebo) under fed state in Period 2 (refer to schedule of food-effect Cohort 3 in Table 3). After completion of Period 1 and a washout period of at least 14 days, Cohort 3 subjects repeated the screening procedures to ensure they still met the inclusion and exclusion criteria prior to readmission to the CRU for Period 2. Subjects dosed in Period 1 and who returned for Period 2 (a maximum of 6 active and 2 placebo) were administered the same single oral dose in Period 2 under fed state. In addition, at least 4 new subjects were enrolled in Period 2 only, in order to dose a total of 12 subjects (10 active and 2 placebo), in a 1:1 ratio of male to female. If a subject dosed in Period 1 was unable to return for Period 2, a new subject was enrolled to ensure dosing a total of 12 subjects in Period 2. Newly enrolled subjects only received the study drug in the fed state, and as such were not required to undergo Period 1 activities. There was no sentinel approach in Period 2.
The safety, PK, and exploratory biomarker assessments were performed prior to dosing and at assigned time points during study confinement. For the food-effect cohort, exploratory biomarker samples were collected in both periods. Subjects were discharged from the CRU following the completion of the 48-hour PK postdose sampling and safety assessments. A safety follow-up phone call was performed on Day 23 (±1 day).

T1 sequence (P10635 whole entry): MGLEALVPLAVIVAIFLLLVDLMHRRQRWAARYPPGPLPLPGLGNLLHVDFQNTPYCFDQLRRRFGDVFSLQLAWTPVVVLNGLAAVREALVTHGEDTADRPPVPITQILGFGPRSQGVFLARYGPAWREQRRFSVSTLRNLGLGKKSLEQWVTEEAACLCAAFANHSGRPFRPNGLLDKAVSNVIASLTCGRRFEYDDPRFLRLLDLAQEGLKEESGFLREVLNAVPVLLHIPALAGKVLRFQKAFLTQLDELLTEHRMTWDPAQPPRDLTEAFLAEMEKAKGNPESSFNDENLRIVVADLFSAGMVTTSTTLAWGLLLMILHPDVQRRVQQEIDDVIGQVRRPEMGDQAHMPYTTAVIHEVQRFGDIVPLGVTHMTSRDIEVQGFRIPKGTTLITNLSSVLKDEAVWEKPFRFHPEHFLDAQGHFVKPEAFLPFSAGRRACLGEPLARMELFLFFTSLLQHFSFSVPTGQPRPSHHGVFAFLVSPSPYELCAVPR
Chain of human serum albumin (P02768 25-609): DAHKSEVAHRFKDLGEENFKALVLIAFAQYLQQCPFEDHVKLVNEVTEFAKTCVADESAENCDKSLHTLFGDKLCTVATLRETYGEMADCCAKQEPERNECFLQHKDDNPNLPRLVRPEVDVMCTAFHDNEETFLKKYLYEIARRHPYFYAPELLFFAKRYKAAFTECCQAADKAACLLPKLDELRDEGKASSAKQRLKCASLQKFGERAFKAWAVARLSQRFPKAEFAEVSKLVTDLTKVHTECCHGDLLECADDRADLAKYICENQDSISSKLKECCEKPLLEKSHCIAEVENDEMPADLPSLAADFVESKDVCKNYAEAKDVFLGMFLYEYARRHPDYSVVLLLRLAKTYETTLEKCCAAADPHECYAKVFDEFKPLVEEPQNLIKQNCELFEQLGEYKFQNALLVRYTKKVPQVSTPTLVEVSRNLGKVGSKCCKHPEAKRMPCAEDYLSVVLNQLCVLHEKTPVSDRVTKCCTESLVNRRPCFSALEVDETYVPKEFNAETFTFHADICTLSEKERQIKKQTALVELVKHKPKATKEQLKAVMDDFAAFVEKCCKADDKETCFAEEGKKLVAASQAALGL
Chain of CYP2C8 (P10632 whole entry): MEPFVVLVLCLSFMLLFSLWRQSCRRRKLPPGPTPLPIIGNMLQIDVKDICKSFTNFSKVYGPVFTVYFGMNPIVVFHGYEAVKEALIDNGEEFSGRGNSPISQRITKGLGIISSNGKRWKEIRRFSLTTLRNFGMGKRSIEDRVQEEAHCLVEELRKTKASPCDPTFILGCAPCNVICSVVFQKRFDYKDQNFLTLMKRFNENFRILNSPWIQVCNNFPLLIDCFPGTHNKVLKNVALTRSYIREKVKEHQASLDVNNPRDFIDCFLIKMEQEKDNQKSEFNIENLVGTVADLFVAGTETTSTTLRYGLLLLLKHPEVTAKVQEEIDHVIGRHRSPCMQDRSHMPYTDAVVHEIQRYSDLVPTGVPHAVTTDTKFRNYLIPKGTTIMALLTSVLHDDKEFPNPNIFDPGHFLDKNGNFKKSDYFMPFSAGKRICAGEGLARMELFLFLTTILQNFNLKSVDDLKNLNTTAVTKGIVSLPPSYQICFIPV

In the case of `C[C@@H](N)C1CCN(S(=O)(=O)c2cccc3cnccc23)CC1` [NRL-1049], the exposure versus dose ([1]; in vivo) is reported as “greater than dose-proportional”, the half-life ([1]; mouse, rat, monkey, plasma, single oral dose of NRL-1049, range over mice, rats, and monkeys, read-out: elimination phase half-life (t½)) is reported as 0.57 to 6.8 h and the Tmax ([1]; mouse, rat, monkey, plasma, single oral dose of NRL-1049, range over mice, rats, and monkeys, read-out: time to maximum plasma concentration (Tmax)) is reported as 0.25 to 2 h. For the same compound, the metabolism by hepatocytes (dog hepatocytes) was “not metabolized”, the tissue distribution ([2]; brain, aorta, inferior vena cava) was “distributed to brain and vascular tissue” and the excretion ([2]; in vivo) was “excreted in urine”. The fraction unbound (plasma protein binding) was 0.541 to 0.706, the plasma protein binding (plasma protein) was “low to moderate” and the “binding to human serum albumin” value (human serum albumin) was “bound”. The “metabolism by CYP2D6” value (CYP2D6 [3]) was “primarily mediated”, the IC50 (CYP2C8) was 160 µM and the IC50 (CYP2D6 [4]) was 0.18 µM. For the same compound, the IC50 (CYP3A4/5; first of the two values printed 23/110, read-out: half-maximal inhibitory concentration (IC50)) was 23 µM, the IC50 (CYP3A4/5; second of the two values printed 23/110, read-out: half-maximal inhibitory concentration (IC50)) was 110 µM and the “reduced expression of CYP2B2” value (CYP2B2) was 0.5 fold. For the same compound, the “deaths or SAEs” value ([5]; Part 1 (SAD)) was “No deaths or SAEs”, the “deaths or SAEs” value ([5]; Part 2) was “No deaths or SAEs” and the “TEAEs of Grade 1/mild” value ([5]; both, human, in vivo) was 57.1%. The “TEAEs of Grade 1 or Grade 2” value ([5]; both, human, in vivo) was 92.3%, the “TEAEs of Grade 2/moderate” value ([5]; both, human, in vivo) was 42.9% and the “TEAEs deemed related to study treatment” value ([5]; both, human, in vivo, 8 days) was 76.9%. The “TEAEs of Grade 1” value ([5]; both, human, in vivo, 8 days) was 30.8%, the “TEAEs of Grade 2” value ([5]; both, human, in vivo, 8 days) was 61.5% and the “subjects who experienced TEAEs” value ([5]; both, human, in vivo, 8 days) was 28.1%. The “CS abnormal findings in laboratory parameters, vital signs, ECGs, physical examination, or cardiac telemetry” value ([5]; in vivo) was “No CS abnormal findings”, the blood pressure ([5]; in vivo) was “reduction of blood pressure” and the tolerability ([5]; in vivo, po) was “generally well tolerated”. For the same compound, the “deaths, SAEs, Grade 4/5 TEAEs” value ([5]; overall) was “no deaths, SAEs, or Grade 4/5 TEAEs” and the MTD ([5]; single oral dose, levels between 150 and 250 mg not explored) was 150 mg.
